Several values for one entry are separate records, joined by “and”; a condition that tells them apart may be missing. Equal entries are not always repeated.
System: human PBMCs
Experiment: LPS-induced cytokine and chemokine levels in human PBMC supernatant (Luminex, ELISA)
Type: cell-based
Settings: for TNF-α [pg/mL], Mean / TNF-α [pg/mL], individual value / GM-CSF % reduction / GM-CSF [pg/mL], Mean / GM-CSF [pg/mL], individual value / IL-1β % reduction / IL-1β [pg/mL], Mean / IL-1β [pg/mL], individual value / IL-6 % reduction / IL-6 [pg/mL], Mean / IL-6 [pg/mL], individual value / IL-8 % reduction / IL-8 [pg/mL], Mean / IL-8 [pg/mL], individual value / TNF-α % reduction: LPS-stimulated human PBMC supernatant

With CC[C@H]1OC(=O)[C@H](C)[C@@H](O[C@H]2C[C@@](C)(OC)[C@@H](O)[C@H](C)O2)[C@H](C)[C@@H](O[C@@H]2O[C@H](C)C[C@H](N(C)C)[C@H]2O)[C@](C)(O)C[C@@H](C)CN(C)[C@H](C)[C@@H](O)[C@]1(C)O [Azithromycin] as the compound, how does the “TNF-α [pg/mL], Mean” value (0.03 µM) read?
The value was 11102 pg/mL.

And the “TNF-α [pg/mL], individual value” (0.03 µM)?
The value was 10517 pg/mL and 11687 pg/mL.

And the GM-CSF % reduction (0.1 µM)?
The GM-CSF % reduction was 8%.

What about the “GM-CSF [pg/mL], Mean” value (0.1 µM) of the same compound?
Its value is 606 pg/mL.

And the “GM-CSF [pg/mL], individual value” (0.1 µM)?
Its value is 616 pg/mL and 597 pg/mL.

And the IL-1β % reduction (0.1 µM)?
The IL-1β % reduction was 7%.

And the “IL-1β [pg/mL], Mean” value (0.1 µM)?
Its value is 11909 pg/mL.

What about the “IL-1β [pg/mL], individual value” (0.1 µM) of the same compound?
The value was 12184 pg/mL and 11633 pg/mL.

What about the IL-6 % reduction (0.1 µM) of the same compound?
Its IL-6 % reduction is 10%.

What about the “IL-6 [pg/mL], Mean” value (0.1 µM) of the same compound?
The value was 31536 pg/mL.

And the “IL-6 [pg/mL], individual value” (0.1 µM)?
Its value is 30929 pg/mL and 32144 pg/mL.

And the IL-8 % reduction (0.1 µM)?
Its IL-8 % reduction is -3.72%.

What about the “IL-8 [pg/mL], Mean” value (0.1 µM) of the same compound?
The value was 3056 pg/mL.

And the “IL-8 [pg/mL], individual value” (0.1 µM)?
The value was 3040 pg/mL and 3071 pg/mL.

And the TNF-α % reduction (0.1 µM)?
The TNF-α % reduction was 8%.

What about the “TNF-α [pg/mL], Mean” value (0.1 µM) of the same compound?
Its value is 8220 pg/mL.

And the “TNF-α [pg/mL], individual value” (0.1 µM)?
The value was 7335 pg/mL and 9106 pg/mL.

And the GM-CSF % reduction (0.3 µM)?
The GM-CSF % reduction was 3.39%.

And the “GM-CSF [pg/mL], Mean” value (0.3 µM)?
The value was 635 pg/mL.

What about the “GM-CSF [pg/mL], individual value” (0.3 µM) of the same compound?
The value was 650 pg/mL and 620 pg/mL.

What about the IL-1β % reduction (0.3 µM) of the same compound?
The IL-1β % reduction was 5%.

And the “IL-1β [pg/mL], Mean” value (0.3 µM)?
The value was 12146 pg/mL.

And the “IL-1β [pg/mL], individual value” (0.3 µM)?
The value was 12820 pg/mL and 11473 pg/mL.

And the IL-6 % reduction (0.3 µM)?
Its IL-6 % reduction is 8%.

And the “IL-6 [pg/mL], Mean” value (0.3 µM)?
The value was 32119 pg/mL.

What about the “IL-6 [pg/mL], individual value” (0.3 µM) of the same compound?
The value was 32538 pg/mL and 31700 pg/mL.

And the IL-8 % reduction (0.3 µM)?
Its IL-8 % reduction is -0.427%.

What about the “IL-8 [pg/mL], Mean” value (0.3 µM) of the same compound?
Its value is 3002 pg/mL.

And the “IL-8 [pg/mL], individual value” (0.3 µM)?
The value was 2940 pg/mL and 3064 pg/mL.

What about the TNF-α % reduction (0.3 µM) of the same compound?
Its TNF-α % reduction is 8%.

What about the “TNF-α [pg/mL], Mean” value (0.3 µM) of the same compound?
Its value is 8210 pg/mL.

And the “TNF-α [pg/mL], individual value” (0.3 µM)?
The value was 7975 pg/mL and 8445 pg/mL.

What about the GM-CSF % reduction (1 µM) of the same compound?
The GM-CSF % reduction was 6.38%.

What about the “GM-CSF [pg/mL], Mean” value (1 µM) of the same compound?
The value was 616 pg/mL.

What about the “GM-CSF [pg/mL], individual value” (1 µM) of the same compound?
The value was 634 pg/mL and 597 pg/mL.

And the IL-1β % reduction (1 µM)?
The IL-1β % reduction was 4%.

And the “IL-1β [pg/mL], Mean” value (1 µM)?
Its value is 12252 pg/mL.

What about the “IL-1β [pg/mL], individual value” (1 µM) of the same compound?
Its value is 12213 pg/mL and 12291 pg/mL.

And the IL-6 % reduction (1 µM)?
Its IL-6 % reduction is -4.52%.

And the “IL-6 [pg/mL], Mean” value (1 µM)?
The value was 36486 pg/mL.

What about the “IL-6 [pg/mL], individual value” (1 µM) of the same compound?
The value was 36508 pg/mL and 36463 pg/mL.

And the IL-8 % reduction (1 µM)?
Its IL-8 % reduction is 0.166%.

What about the “IL-8 [pg/mL], Mean” value (1 µM) of the same compound?
The value was 2992 pg/mL.

And the “IL-8 [pg/mL], individual value” (1 µM)?
The value was 2945 pg/mL and 3040 pg/mL.

And the TNF-α % reduction (1 µM)?
Its TNF-α % reduction is -33%.

And the “TNF-α [pg/mL], Mean” value (1 µM)?
The value was 11913 pg/mL.

And the “TNF-α [pg/mL], individual value” (1 µM)?
The value was 11577 pg/mL and 12250 pg/mL.

What about the GM-CSF % reduction (3 µM) of the same compound?
The GM-CSF % reduction was -8.5%.

What about the “GM-CSF [pg/mL], Mean” value (3 µM) of the same compound?
The value was 713 pg/mL.

And the “GM-CSF [pg/mL], individual value” (3 µM)?
The value was 735 pg/mL and 692 pg/mL.

And the IL-1β % reduction (3 µM)?
The IL-1β % reduction was -0.234%.

And the “IL-1β [pg/mL], Mean” value (3 µM)?
Its value is 12815 pg/mL.

And the “IL-1β [pg/mL], individual value” (3 µM)?
Its value is 12810 pg/mL and 12820 pg/mL.

And the IL-6 % reduction (3 µM)?
Its IL-6 % reduction is 4%.

What about the “IL-6 [pg/mL], Mean” value (3 µM) of the same compound?
The value was 33458 pg/mL.

What about the “IL-6 [pg/mL], individual value” (3 µM) of the same compound?
Its value is 33827 pg/mL and 33090 pg/mL.

And the IL-8 % reduction (3 µM)?
The IL-8 % reduction was -3.25%.

What about the “IL-8 [pg/mL], Mean” value (3 µM) of the same compound?
Its value is 3048 pg/mL.

And the “IL-8 [pg/mL], individual value” (3 µM)?
The value was 3040 pg/mL and 3056 pg/mL.

What about the TNF-α % reduction (3 µM) of the same compound?
The TNF-α % reduction was -13%.

And the “TNF-α [pg/mL], Mean” value (3 µM)?
The value was 10076 pg/mL.

What about the “TNF-α [pg/mL], individual value” (3 µM) of the same compound?
The value was 10741 pg/mL and 9410 pg/mL.

What about the GM-CSF % reduction (10 µM) of the same compound?
The GM-CSF % reduction was -18%.

What about the “GM-CSF [pg/mL], Mean” value (10 µM) of the same compound?
The value was 778 pg/mL.

And the “GM-CSF [pg/mL], individual value” (10 µM)?
Its value is 790 pg/mL and 767 pg/mL.

And the IL-1β % reduction (10 µM)?
The IL-1β % reduction was 6%.

What about the “IL-1β [pg/mL], Mean” value (10 µM) of the same compound?
Its value is 12046 pg/mL.

And the “IL-1β [pg/mL], individual value” (10 µM)?
Its value is 12362 pg/mL and 11731 pg/mL.

What about the IL-6 % reduction (10 µM) of the same compound?
The IL-6 % reduction was 4.69%.

What about the “IL-6 [pg/mL], Mean” value (10 µM) of the same compound?
The value was 33270 pg/mL.

What about the “IL-6 [pg/mL], individual value” (10 µM) of the same compound?
The value was 35180 pg/mL and 31360 pg/mL.

What about the IL-8 % reduction (10 µM) of the same compound?
The IL-8 % reduction was 7.45%.

What about the “IL-8 [pg/mL], Mean” value (10 µM) of the same compound?
Its value is 2874 pg/mL.

What about the “IL-8 [pg/mL], individual value” (10 µM) of the same compound?
The value was 2884 pg/mL and 2864 pg/mL.

What about the TNF-α % reduction (10 µM) of the same compound?
The TNF-α % reduction was -22%.

What about the “TNF-α [pg/mL], Mean” value (10 µM) of the same compound?
The value was 10907 pg/mL.

What about the “TNF-α [pg/mL], individual value” (10 µM) of the same compound?
Its value is 11897 pg/mL and 9917 pg/mL.

And the GM-CSF % reduction (30 µM)?
Its GM-CSF % reduction is -64%.

What about the “GM-CSF [pg/mL], Mean” value (30 µM) of the same compound?
Its value is 1076 pg/mL.

What about the “GM-CSF [pg/mL], individual value” (30 µM) of the same compound?
The value was 1120 pg/mL and 1032 pg/mL.

What about the IL-1β % reduction (30 µM) of the same compound?
Its IL-1β % reduction is 22%.

And the “IL-1β [pg/mL], Mean” value (30 µM)?
Its value is 10027 pg/mL.

What about the “IL-1β [pg/mL], individual value” (30 µM) of the same compound?
Its value is 10517 pg/mL and 9538 pg/mL.

And the IL-6 % reduction (30 µM)?
The IL-6 % reduction was 2.66%.

What about the “IL-6 [pg/mL], Mean” value (30 µM) of the same compound?
Its value is 33980 pg/mL.

And the “IL-6 [pg/mL], individual value” (30 µM)?
Its value is 33792 pg/mL and 34168 pg/mL.

What about the IL-8 % reduction (30 µM) of the same compound?
The IL-8 % reduction was 5%.

And the “IL-8 [pg/mL], Mean” value (30 µM)?
Its value is 2917 pg/mL.

What about the “IL-8 [pg/mL], individual value” (30 µM) of the same compound?
The value was 2925 pg/mL and 2908 pg/mL.

What about the TNF-α % reduction (30 µM) of the same compound?
Its TNF-α % reduction is -21%.

And the “TNF-α [pg/mL], Mean” value (30 µM)?
Its value is 10839 pg/mL.

And the “TNF-α [pg/mL], individual value” (30 µM)?
Its value is 10668 pg/mL and 11009 pg/mL.

And the GM-CSF % reduction (100 µM)?
The GM-CSF % reduction was -161%.

What about the “GM-CSF [pg/mL], Mean” value (100 µM) of the same compound?
Its value is 1715 pg/mL.

What about the “GM-CSF [pg/mL], individual value” (100 µM) of the same compound?
The value was 1713 pg/mL and 1717 pg/mL.

What about the IL-1β % reduction (100 µM) of the same compound?
Its IL-1β % reduction is 51%.

What about the “IL-1β [pg/mL], Mean” value (100 µM) of the same compound?
Its value is 6242 pg/mL.

And the “IL-1β [pg/mL], individual value” (100 µM)?
Its value is 5956 pg/mL and 6528 pg/mL.

What about the IL-6 % reduction (100 µM) of the same compound?
The IL-6 % reduction was 23%.

What about the “IL-6 [pg/mL], Mean” value (100 µM) of the same compound?
The value was 27053 pg/mL.

And the “IL-6 [pg/mL], individual value” (100 µM)?
The value was 26301 pg/mL and 27804 pg/mL.

And the “IL-8 [pg/mL], Mean” value (100 µM)?
Its value is 2975 pg/mL.

What about the “IL-8 [pg/mL], individual value” (100 µM) of the same compound?
The value was 2977 pg/mL and 2972 pg/mL.

And the TNF-α % reduction (100 µM)?
Its TNF-α % reduction is 17%.

And the “TNF-α [pg/mL], Mean” value (100 µM)?
The value was 7409 pg/mL.

What about the “TNF-α [pg/mL], individual value” (100 µM) of the same compound?
The value was 6229 pg/mL and 8589 pg/mL.

What about the “levels of the measured LPS-induced cytokines, chemokines, or MMP-9 in supernatants” value (human PBMCs, concentrations tested (100 μM not shown)) of the same compound?
Its value is “little to no reduction”.

Source: article PMC8480901 (PLoS ONE, 2021)
